Where a name gives a salt, the structure may show the parent alone.
Biological target: IRAK-4 (Homo sapiens (Human), UniProt Q9NWZ3)
Experiment: In vitro IRAK-4 kinase assay
Format: biochemical
Details: purified recombinant IRAK-4, 50 uM ATP, 33P peptide phosphorylation
Protocol: Purified recombinant IRAK-4 protein was incubated with 250 uM synthetic peptide ([…]) in 30 ul of kinase buffer including (20 mM MOPS pH7.2, 25 mM beta glycerol phosphate, 5 mM EGTA, 1 mM sodium orthovanadate, 1 mM DTT, 50 uM ATP, 20 mM MgCl2, 10 uCi γ-^33P, 0.1% BSA) for the indicated time. For purified recombinant IRAK-1 protein kinase assay, 50 uM ATP was used. A 25 ul aliquot of the reaction mixture was transferred on to p81 phosphocellulose squares (Upstate Biotechnology, Lake Placid, N.Y.). The assay squares were washed three times with 0.75% phosphoric acid and once with acetone. Enzyme activity was measured by determining the bound radioactivity by liquid scintillation counting.

Sequence of IRAK-4 (Q9NWZ3 whole entry, species assumed): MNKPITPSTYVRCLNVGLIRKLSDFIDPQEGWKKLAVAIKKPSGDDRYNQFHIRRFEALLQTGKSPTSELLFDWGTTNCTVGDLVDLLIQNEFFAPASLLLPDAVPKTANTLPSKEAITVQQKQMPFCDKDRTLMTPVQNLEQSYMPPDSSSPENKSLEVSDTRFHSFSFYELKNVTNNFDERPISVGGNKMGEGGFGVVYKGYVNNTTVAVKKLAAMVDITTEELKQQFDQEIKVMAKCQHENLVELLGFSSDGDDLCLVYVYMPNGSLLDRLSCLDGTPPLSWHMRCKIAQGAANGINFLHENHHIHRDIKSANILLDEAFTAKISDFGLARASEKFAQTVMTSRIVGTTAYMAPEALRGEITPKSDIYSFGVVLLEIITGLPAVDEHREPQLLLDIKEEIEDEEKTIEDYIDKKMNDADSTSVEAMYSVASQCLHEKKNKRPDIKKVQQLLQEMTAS

Row | IC50 [nM] | SMILES
1 | 133 | NCC1CCN(c2c(N)cccc2NC(=O)c2cnn3cccnc23)CC1 [Example 59, Pyrazolo[1,5-alpha]pyrimidine-3-carboxylic acid [3-amino-2-(4-aminomethyl-piperidin-1-yl)-phenyl]-amide]
2 | 136 | O=C(Nc1cc(Cl)ccc1N1CCC(O)CC1)c1cnn2cccnc12 [Example 60, Pyrazolo[1,5-alpha]pyrimidine-3-carboxylic acid [5-chloro-2-(4-hydroxy-piperidin-1-yl)-phenyl]-amide]
3 | 137 | O=C(Nc1cc(Cl)ccc1OC1CCC(O)CC1)c1cnn2cc(Br)cnc12 (stereo not drawn) [Example 61, 6-Bromo-pyrazolo[1,5-alpha]pyrimidine-3-carboxylic acid [5-chloro-2-(4-hydroxy-cyclohexyloxy)-phenyl]-amide]
4 | 156 | Nc1cccc(NC(=O)c2cnn3cccnc23)c1N1CCCCC1 [Example 63, Pyrazolo[1,5-alpha]pyrimidine-3-carboxylic acid (3-amino-2-piperidin-1-yl-phenyl)-amide]
5 | 177 | O=C(Nc1cc2ccccc2cc1OC1CCC(O)C1)c1cnn2cccnc12 (stereo not drawn) [Example 65, Pyrazolo[1,5-alpha]pyrimidine-3-carboxylic acid [3-(3-hydroxy-cyclopentyloxy)-naphthalen-2-yl]-amide]
6 | 199 | O=C(Nc1cc(CO)ccc1N1CCCCC1)c1cnn2cccnc12 [Example 66, Pyrazolo[1,5-alpha]pyrimidine-3-carboxylic acid (5-hydroxymethyl-2-piperidin-1-yl-phenyl)-amide]
7 | 203 | NC(=O)c1cnc2c(C(=O)Nc3cc(Cl)ccc3O[C@H]3CC[C@@H](O)CC3)cnn2c1 [Example 67, Pyrazolo[1,5-alpha]pyrimidine-3,6-dicarboxylic acid 6-amide 3-{[5-chloro-2-(4-hydroxy-cyclohexyloxy)-phenyl]-amide}]
8 | 218 | O=C(Nc1cc(Cl)ccc1-c1ccc(CO)cc1)c1cnn2cccnc12 [Example 68, Pyrazolo[1,5-alpha]pyrimidine-3-carboxylic acid (4-chloro-4′-hydroxymethyl-biphenyl-2-yl)-amide]
9 | 231 | COc1cc2[nH]ncc2cc1NC(=O)c1cnn2cccnc12 [Example 69, Pyrazolo[1,5-alpha]pyrimidine-3-carboxylic acid (6-methoxy-1H-indazol-5-yl)-amide]
10 | 251 | NC1CCN(c2ccc(Cl)cc2NC(=O)c2cnn3cccnc23)CC1 [Example 70, Pyrazolo[1,{tildeover (5)}-alpha] pyrimidine-3-carboxylic acid [2-(4-amino-piperidin-1-yl)-5-chloro-phenyl]-amide]
11 | 254 | COc1cnc2c(C(=O)Nc3cc(Cl)ccc3N3CCC(CN)CC3)cnn2c1 [Example 71, 6-Methoxy-pyrazolo[1,5-alpha]pyrimidine-3-carboxylic acid [2-(4-aminomethyl-piperidin-1-yl)-5-chloro-phenyl]-amide]
12 | 255 | COc1cc2cc(C)[nH]c2cc1NC(=O)c1cnn2cccnc12 [Example 72, Pyrazolo[1,5-alpha]pyrimidine-3-carboxylic acid (5-methoxy-2-methyl-1H-indol-6-yl)-amide]
13 | 271 | COc1cc2ncccc2cc1NC(=O)c1csc2cnc(NCC(C)C)nc12 [Example 73, 2-Isobutylamino-thieno[3,2-d]pyrimidine-7-carboxylic acid (7-methoxy-quinolin-6-yl)-amide]
14 | 290 | CC(C)Oc1ccc(Cl)cc1NC(=O)c1csc2cncnc12 [Example 74, Thieno[3,2-d]pyrimidine-7-carboxylic acid (5-chloro-2-isopropoxy-phenyl)-amide]
15 | 300 | O=C(Nc1ccc2ncccc2c1)c1csc2cnc(NCCO)nc12 [Example 75, 2-(2-Hydroxy-ethylamino)-thieno[3,2-d]pyrimidine-7-carboxylic acid quinolin-6-ylamide]
16 | 301 | COc1cnc2c(C(=O)Nc3cc(Cl)ccc3OC3CCC(O)CC3)cnn2c1 (centres unmarked) [Example 76, 6-Methoxy-pyrazolo[1,5-a]pyrimidine-3-carboxylic acid [5-chloro-2-(4-hydroxy-cyclohexyloxy)-phenyl]-amide]
17 | 306 | O=C(Nc1cc(Cl)ccc1OC1CCC(CO)C1)c1cnn2cccnc12 (stereo not drawn) [Example 77, Pyrazolo[1,5-alpha]pyrimidine-3-carboxylic acid [5-chloro-2-(3-hydroxymethyl-cyclopentyloxy)-phenyl]-amide]
18 | 312 | O=C(Nc1cc(Cl)ccc1N1CCCC1)c1cnn2cccnc12 [Example 78, Pyrazolo[1,5-alpha]pyrimidine-3-carboxylic acid (5-chloro-2-pyrrolidin-1-yl-phenyl)-amide]
19 | 314 | O=C(Nc1cc(Cl)ccc1N1CCCCC1)c1cnn2cccnc12 [Example 79, Pyrazolo[1,5-alpha]pyrimidine-3-carboxylic acid (5-chloro-2-piperidin-1-yl-phenyl)-amide]
20 | 327 | O=C(Nc1cc2ccccc2cc1OCCCO)c1cnn2cccnc12 [Example 80, Pyrazolo[1,5-alpha]pyrimidine-3-carboxylic acid [3-(3-hydroxy-propoxy)-naphthalen-2-yl]-amide]
21 | 358 | COc1cc2ccc(CO)cc2cc1NC(=O)c1cnn2cccnc12 [Example 82, Pyrazolo[1,5-alpha]pyrimidine-3-carboxylic acid (7-hydroxymethyl-3-methoxy-naphthalen-2-yl)-amide]
22 | 430 | O=C(Nc1cc(Cl)ccc1OCCCO)c1cnn2cccnc12 [Example 84, Pyrazolo[1,5-alpha]pyrimidine-3-carboxylic acid [5-chloro-2-(3-hydroxy-propoxy)-phenyl]-amide]
23 | 432 | COc1cc2ncccc2cc1NC(=O)c1csc2cnc(N(C)C(C)C)nc12 [Example 85, 2-(Isopropyl-methyl-amino)-thieno[3,2-d]pyrimidine-7-carboxylic acid (7-methoxy-quinolin-6-yl)-amide]
24 | 455 | O=C(Nc1cc2cccnc2cc1OC1CCNC1)c1csc2cncnc12 (centres unmarked) [Example 88, Thieno[3,2-d]pyrimidine-7-carboxylic acid [7-(pyrrolidin-3-yloxy)-quinolin-6-yl]-amide hydrochloride]
25 | 455 | COc1cc(C(=O)Nc2ccccc2)ccc1NC(=O)c1cnn2cccnc12 [Example 89, Pyrazolo[1,5-alpha]pyrimidine-3-carboxylic acid (2-methoxy-4-phenylcarbamoyl-phenyl)-amide]
26 | 474 | O=C(Nc1cc(Cl)ccc1N1CCCC(O)C1)c1cnn2cccnc12 (stereo not drawn) [Example 91, Pyrazolo[1,5-alpha]pyrimidine-3-carboxylic acid [5-chloro-2-(3-hydroxy-piperidin-1-yl)-phenyl]-amide]
27 | 476 | O=C(Nc1cc(Cl)ccc1OC1CCNCC1)c1cnn2cccnc12 [Example 92, Pyrazolo[1,5-alpha]pyrimidine-3-carboxylic acid [5-chloro-2-(piperidin-4-yloxy)-phenyl]-amide hydrochloride]

Row | SMILES | IC50 [nM]
28 | COc1ccc(Cl)cc1NC(=O)c1csc2cnc(N(C)CCN)nc12 [Example 86, 2-[(2-Amino-ethyl)-methyl-amino]-thieno[3,2-d]pyrimidine-7-carboxylic acid (5-chloro-2-methoxy-phenyl)-amide] | 436
29 | O=C(Nc1cc(Cl)ccc1OCCCCO)c1cnn2cccnc12 [Example 87, Pyrazolo[1,5-alpha]pyrimidine-3-carboxylic acid [5-chloro-2-(4-hydroxy-butoxy)-phenyl]-amide] | 437

From patent US9255110B2 (Hoffmann-La Roche Inc., priority 2010, dated 2016)
